Data reported in patent US10364256B2 (GlaxoSmithKline Intellectual Property Development Limited, priority 2015, dated 2019).
Read-outs that look alike come from different tables or passages of the source.

Columns and labels:
[1] = tested on: NQO1 specific enzyme activity in BEAS-2B cells (marker for NRF2 activation); assay: BEAS-2B NQO1 MTT Assay; type: cell-based; conditions: Homo sapiens, compound incubated 48 hours, read-out: EC50 (NQO1 specific enzyme activity induction)
Method in brief: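 NQO1 specific activity induction is derived from the rate of MTT reduction (ΔOD/min, 570 nm, 30 min kinetic read) in crude lysates of BEAS-2B cells exposed to compound for 48 h. A 3-parameter fit gives EC50, reported as pEC50; part of each lysate goes to Cell Titer Glo.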

[2] = target: T1, full length Keap1 protein / full length NRF2 protein (Homo sapiens, UniProt Q14145); assay: NRF2-Keap1 TR-FRET Low Protein Assay; type: binding; conditions: 1.25 nM Keap1 FlagHis and 2.5 nM biotin-NRF2 added
T1 construct: full length NRF2 protein and full length Keap1 protein (Keap1 exists a dimer) are used; His
Method in brief: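 Flag-tagged full-length Keap1 was preincubated with compound (3-fold series) for 2.25 h at 37 °C in Tris pH 8.0/MgCl2/NaCl/BSA/DTT/CHAPS. Biotin-Avi-NRF2 (added at 2.5 nM) was then bound for 1.25 h at 4 °C. Eu-streptavidin/anti-Flag-APC TR-FRET (665/615 nm) was read after 1 h at RT, and pIC50 came from a four-parameter fit.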

T1 sequence (Q14145 whole entry): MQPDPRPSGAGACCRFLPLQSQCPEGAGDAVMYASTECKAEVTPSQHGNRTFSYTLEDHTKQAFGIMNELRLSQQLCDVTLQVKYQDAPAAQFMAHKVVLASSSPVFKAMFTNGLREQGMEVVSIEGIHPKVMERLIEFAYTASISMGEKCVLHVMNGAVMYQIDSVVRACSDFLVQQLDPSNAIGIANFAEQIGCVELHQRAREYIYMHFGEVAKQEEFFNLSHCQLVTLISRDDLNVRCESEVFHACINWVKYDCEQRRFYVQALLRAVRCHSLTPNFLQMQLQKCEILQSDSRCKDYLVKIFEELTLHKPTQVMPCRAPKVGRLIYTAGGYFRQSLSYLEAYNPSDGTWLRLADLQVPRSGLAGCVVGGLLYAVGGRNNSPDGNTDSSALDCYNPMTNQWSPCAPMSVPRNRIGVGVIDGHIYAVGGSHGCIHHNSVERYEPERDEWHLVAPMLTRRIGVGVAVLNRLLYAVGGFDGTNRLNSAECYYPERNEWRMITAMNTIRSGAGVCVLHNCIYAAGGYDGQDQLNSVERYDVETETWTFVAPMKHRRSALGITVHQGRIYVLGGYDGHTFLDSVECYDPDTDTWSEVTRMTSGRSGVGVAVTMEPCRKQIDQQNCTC

Row | SMILES | IC50 [2] | EC50 [1] | EC50 ([1]; BEAS-2B, 48 h)
1 | Cn1cc([C@H]2C[C@@H]2c2c(C(=O)O)cnn2-c2cccc(-c3cccc(OCc4ccc(-c5ccccc5)cc4)c3)c2)nn1 (racemic) [Example 237, 1-(3′-([1,1′-Biphenyl]-4-ylmethoxy)-[1,1′-biphenyl]-3-yl)-5-((1,2-trans)-2-(1-methyl-1H-1,2,3-triazol-4-yl)cyclopropyl)-1H-pyrazole-4-carboxylic Acid] | 100 to 1000 nM | 100 to 1000 nM | 
2 | CC1(C)CCc2cnn(-c3cccc(-c4cccc(-n5ncc(C(=O)O)c5C(F)(F)F)n4)c3)c21 [Example 204, 1-(6-(3-(6,6-Dimethyl-5,6-dihydrocyclopenta[c]pyrazol-1(4H)-yl)phenyl)pyridin-2-yl)-5-(trifluoromethyl)-1H-pyrazole-4-carboxylic Acid] | 100 to 1000 nM | 100 to 1000 nM | 
3 | Cc1nnc(-c2cccc(-c3cccc(-n4ncc(C(=O)O)c4C4CC4)c3)c2)o1 [Example 210, 5S-Cyclopropyl-1-(3′-(5-methyl-1,3,4-oxadiazol-2-yl)-[1,1′-biphenyl]-3-yl)-1H-pyrazole-4-carboxylic acid] | 10000 to 100000 nM | 100 to 1000 nM | 
4 | CCC[C@@H]1CCCCN1C(=O)c1cccc(-c2cccc(-n3ncc(C(=O)O)c3[C@H]3C[C@@H]3c3cn(CC)nn3)c2)c1 (racemic) [Example 201, 5-((1,2-trans)-2-(1-Ethyl-1H-1,2,3-triazol-4-yl)cyclopropyl)-1-(3′-((R)-2-propylpiperidine-1-carbonyl)-[1,1′-biphenyl]-3-yl)-1H-pyrazole-4-carboxylic acid] | < 10 nM |  | 100 to 1000 nM

More lines, main results first:

Row | IC50 [2] | SMILES | EC50 [1] | EC50 ([1]; BEAS-2B, 48 h)
5 | < 10 nM | Cn1cc([C@@H]2C[C@H]2c2c(C(=O)O)cnn2-c2cccc(-c3cccc(OCC4CCCCC4C(F)(F)F)c3)c2)nn1 (mixture of isomers) [Example 148, 5-((1,2-trans)-2-(1-Methyl-1H-1,2,3-triazol-4-yl)cyclopropyl)-1-(3′-((2-(trifluoromethyl)cyclohexyl)methoxy)-[1,1′-biphenyl]-3-yl)-1H-pyrazole-4-carboxylic acid] | 10 to 100 nM | 
6 | 10 to 100 nM | Cn1cc([C@@H]2C[C@H]2c2c(C(=O)O)cnn2-c2cccc(-c3cccc(OCC4CCCCC4)c3)c2)nn1 [Example 171, 1-(3′-(Cyclohexylmethoxy)-[1,1′-biphenyl]-3-yl)-5-((1R,2R)-2-(1-methyl-1H-1,2,3-triazol-4-yl)cyclopropyl)-1H-pyrazole-4-carboxylic acid] | 10 to 100 nM | 
7 | 10 to 100 nM | Cn1cc(C2CC2c2c(C(=O)O)cnn2-c2cccc(-c3cccc(C(O)CC4CCCCC4)c3)c2)nn1 (stereo not shown) [Example 217, 1-(3′-(2-Cyclohexyl-1-hydroxyethyl)-[1,1′-biphenyl]-3-yl)-5-(2-(1-methyl-1H-1,2,3-triazol-4-yl)cyclopropyl)-1H-pyrazole-4-carboxylic acid] | 100 to 1000 nM | 
8 | 100 to 1000 nM | CC(Oc1cccc(-c2cccc(-n3ncc(C(=O)O)c3[C@H]3C[C@@H]3c3cn(C)nn3)c2)c1)C1CCCCC1 (single isomer, unassigned) [Example 191] |  | 100 to 1000 nM
